Experimental data reported in ChEMBL document CHEMBL5724914, “Linking interpersonal differences in gut microbiota composition and drug biotransformation activity” (2024).

Assays:
[1] = (§1) The drug is tested on WLS-007 corresponding to human gut metagenome with ENA study accession number: PRJEB37062 and ENA sample accession number: ERS12561742 for biotransformation under anaerobic condition. The drug concentrations were measured over 9 timepoints collected between 0 and 24 hours of incubation by liquid-chromatography-coupled mass spectrometry (LC–MS); conditions: 2 µM
[2] = human gut metagenome, 24 h, 2 µM
[3] = human gut metagenome, 24 h, 2 µM; remark: listed apart in the source
[4] = human gut metagenome, 24 h, 2 µM; remark: listed apart in the source
[5] = as §1, with “WLS-086” for “WLS-007”, “ERS12561752” for “ERS12561742”; conditions: 2 µM
[6] = human gut metagenome, 24 h, 2 µM; remark: listed apart in the source
[7] = human gut metagenome, 24 h, 2 µM; remark: listed apart in the source
[8] = human gut metagenome, 24 h, 2 µM; remark: listed apart in the source
[9] = as §1, with “WLS-010” for “WLS-007”, “ERS12561743” for “ERS12561742”; conditions: 2 µM
[10] = human gut metagenome, 24 h, 2 µM; remark: listed apart in the source
[11] = as §1, with “WLS-370” for “WLS-007”, “ERS12561793” for “ERS12561742”; conditions: 2 µM
[12] = as §1, with “WLS-310” for “WLS-007”, “ERS12561785” for “ERS12561742”; conditions: 2 µM
[13] = as §1, with “Z-005” for “WLS-007”, “to” for “to human gut”, “ERS12561805” for “ERS12561742”; conditions: 2 µM
[14] = as §1, with “Z-014” for “WLS-007”, “rat” for “human”, “ERS12561814” for “ERS12561742”; conditions: 2 µM
[15] = as §1, with “Z-004” for “WLS-007”, “to” for “to human gut”, “ERS12561804” for “ERS12561742”; conditions: 2 µM
[16] = as §1, with “Z-027” for “WLS-007”, “to” for “to human gut”, “ERS12561826” for “ERS12561742”; conditions: 2 µM
[17] = as §1, with “Z-018” for “WLS-007”, “pig” for “human”, “ERS12561817” for “ERS12561742”; conditions: 2 µM
[18] = as §1, with “Z-010” for “WLS-007”, “to” for “to human gut”, “ERS12561810” for “ERS12561742”; conditions: 2 µM
[19] = as §1, with “Z-006” for “WLS-007”, “mouse” for “human”, “ERS12561806” for “ERS12561742”; conditions: 2 µM
Further: call rule not given here.

Bacterial Biotransformation [1]	Bacterial Biotransformation [2]	Bacterial Biotransformation [3]	Bacterial Biotransformation [4]	Bacterial Biotransformation [5]	Bacterial Biotransformation [6]	Bacterial Biotransformation [7]	Bacterial Biotransformation [8]	Bacterial Biotransformation [9]	Bacterial Biotransformation [10]	Bacterial Biotransformation [11]	Bacterial Biotransformation [12]	Bacterial Biotransformation [13]	Bacterial Biotransformation [14]	Bacterial Biotransformation [15]	Bacterial Biotransformation [16]	Bacterial Biotransformation [17]	Bacterial Biotransformation [18]	Bacterial Biotransformation [19]	SMILES
Compound NOT metabolized	Compound metabolized	Compound NOT metabolized	Compound NOT metabolized	Compound metabolized	Compound metabolized	Compound NOT metabolized	Compound NOT metabolized	Compound NOT metabolized	Compound NOT metabolized	Compound NOT metabolized	Compound metabolized								CN(C)CCc1c[nH]c2ccc(CS(=O)(=O)N3CCCC3)cc12 [ALMOTRIPTAN]
Compound metabolized	Compound metabolized	Compound NOT metabolized	Compound metabolized	Compound metabolized	Compound metabolized	Compound NOT metabolized	Compound metabolized	Compound metabolized	Compound metabolized	Compound NOT metabolized	Compound metabolized								CCCCC(=O)O[C@]1(C(=O)CO)[C@@H](C)C[C@H]2[C@@H]3CCC4=CC(=O)C=C[C@]4(C)[C@@]3(F)[C@@H](O)C[C@@]21C [BETAMETHASONE VALERATE]
Compound NOT metabolized	Compound metabolized	Compound NOT metabolized	Compound metabolized	Compound metabolized	Compound metabolized	Compound NOT metabolized	Compound NOT metabolized	Compound metabolized	Compound metabolized	Compound metabolized	Compound metabolized								Cc1nc(Nc2ncc(C(=O)Nc3c(C)cccc3Cl)s2)cc(N2CCN(CCO)CC2)n1 [DASATINIB ANHYDROUS]
Compound NOT metabolized	Compound metabolized	Compound NOT metabolized	Compound metabolized	Compound NOT metabolized	Compound NOT metabolized	Compound NOT metabolized	Compound NOT metabolized	Compound NOT metabolized	Compound NOT metabolized	Compound metabolized	Compound metabolized								COCCCC/C(=N\OCCN)c1ccc(C(F)(F)F)cc1.O=C(O)/C=C\C(=O)O [FLUVOXAMINE MALEATE]
Compound NOT metabolized	Compound NOT metabolized	Compound NOT metabolized	Compound NOT metabolized	Compound NOT metabolized	Compound NOT metabolized	Compound NOT metabolized	Compound NOT metabolized	Compound NOT metabolized		Compound NOT metabolized	Compound NOT metabolized								CC#CCn1c(N2CCC[C@@H](N)C2)nc2c1c(=O)n(Cc1nc(C)c3ccccc3n1)c(=O)n2C [LINAGLIPTIN]
Compound NOT metabolized	Compound metabolized	Compound metabolized	Compound metabolized	Compound metabolized	Compound metabolized	Compound metabolized	Compound metabolized	Compound metabolized	Compound metabolized	Compound metabolized	Compound metabolized								CCOC(=O)C1=C(C)NC(C)=C(C(=O)OC)C1c1cccc([N+](=O)[O-])c1 (stereo not drawn) [NITRENDIPINE]
Compound NOT metabolized	Compound metabolized	Compound NOT metabolized	Compound NOT metabolized	Compound metabolized	Compound metabolized	Compound NOT metabolized	Compound metabolized	Compound NOT metabolized	Compound NOT metabolized	Compound NOT metabolized	Compound metabolized								N#Cc1ccc2c(c1)N(CCCN1CCC(O)CC1)c1ccccc1S2 [PERICIAZINE]
Compound metabolized	Compound NOT metabolized	Compound NOT metabolized	Compound NOT metabolized	Compound metabolized	Compound metabolized	Compound NOT metabolized	Compound metabolized	Compound metabolized	Compound metabolized	Compound NOT metabolized	Compound metabolized								O=C([O-])C[C@H](O)C[C@H](O)/C=C/c1c(C2CC2)nc2ccccc2c1-c1ccc(F)cc1.O=C([O-])C[C@H](O)C[C@H](O)/C=C/c1c(C2CC2)nc2ccccc2c1-c1ccc(F)cc1.[Ca+2] [PITAVASTATIN CALCIUM]
	Compound NOT metabolized	Compound metabolized	Compound metabolized	Compound metabolized	Compound metabolized	Compound NOT metabolized	Compound NOT metabolized		Compound metabolized	Compound metabolized	Compound metabolized	Compound NOT metabolized	Compound NOT metabolized	Compound NOT metabolized					CNNCc1ccc(C(=O)NC(C)C)cc1 [PROCARBAZINE]
	Compound metabolized	Compound NOT metabolized	Compound NOT metabolized	Compound metabolized	Compound NOT metabolized	Compound NOT metabolized	Compound NOT metabolized		Compound NOT metabolized	Compound NOT metabolized	Compound metabolized	Compound NOT metabolized	Compound NOT metabolized	Compound NOT metabolized	Compound NOT metabolized	Compound NOT metabolized	Compound NOT metabolized	Compound NOT metabolized	CN(C/C=C/C#CC(C)(C)C)Cc1cccc2ccccc12 [TERBINAFINE]

SMILES	Bacterial Biotransformation [1]	Bacterial Biotransformation [2]	Bacterial Biotransformation [3]	Bacterial Biotransformation [4]	Bacterial Biotransformation [5]	Bacterial Biotransformation [6]	Bacterial Biotransformation [7]	Bacterial Biotransformation [8]	Bacterial Biotransformation [9]	Bacterial Biotransformation [10]	Bacterial Biotransformation [11]	Bacterial Biotransformation [12]	Bacterial Biotransformation [13]	Bacterial Biotransformation [14]	Bacterial Biotransformation [15]	Bacterial Biotransformation [16]	Bacterial Biotransformation [17]	Bacterial Biotransformation [18]	Bacterial Biotransformation [19]
N[C@@H](Cc1ccc(N(CCCl)CCCl)cc1)C(=O)O	Compound metabolized	Compound NOT metabolized	Compound NOT metabolized	Compound metabolized	Compound metabolized	Compound metabolized	Compound NOT metabolized	Compound metabolized	Compound metabolized	Compound metabolized	Compound NOT metabolized								
CN1CCN(C2=Nc3ccccc3Oc3ccc(Cl)cc32)CC1.O=C(O)CCC(=O)O [LOXAPINE SUCCINATE]	Compound NOT metabolized	Compound NOT metabolized	Compound NOT metabolized	Compound NOT metabolized	Compound NOT metabolized	Compound NOT metabolized	Compound NOT metabolized	Compound NOT metabolized	Compound NOT metabolized	Compound NOT metabolized	Compound NOT metabolized	Compound NOT metabolized							
